Data from paper PMC12265377, “CC48 a new CB2R agonist/FAAH inhibitor dual drug blocks gastric cancer progression and overcomes paclitaxel resistance” (Journal of Experimental & Clinical Cancer Research : CR, 2025).

Legend:
[1] = tested on: HGC27-R cells; test: ROS determination assay (DCF-DA); type: cell-based, human; conditions: 1 µM, 48 h, vs untreated cells
Protocol: (§1) For ROS analysis the procedure described in [26] was adapted. […] After the incubation, all the samples were incubated for 30 minutes at 37°C in the dark with 50 µM 2’,7’-dichlorofluorescein diacetate, DCF-DA.
(§2) Cells were then washed, detached with trypsin/EDTA solution, centrifuged at 12,000 g for 10 min and re-suspended in1mL PBS. At least 10.000 total events were acquired using an Attune Nxt Acoustic Focusing Cytometer (Life Technologies Corporation) equipped with a blue laser (488 nm). Analysis was performed and data were visualized using Attune™ NxT v2.6 Software. The percentage of green fluorescent cells and the green fluorescence median were measured on a mono-parametric histogram based on DCF-DA fluorescence.

[2] = tested on: CB1R; conditions: cited from earlier work
[3] = tested on: HGC27-S cells; test: Western blot of proliferation pathway proteins; type: cell-based, human; conditions: 48 h, 6 µM AM630, 10 µM agonists
Protocol: Western Blotting analysis was performed as previously described in both HGC27-S/R and AGS cells. Briefly, for each experimental condition the cells were lysed in ice-cold lysis buffer (50 mM Tris, 10 mM EDTA, 1% v/v Triton-X100), supplemented with the protease/phosphatase inhibitor cocktail set (Merck KGaA, Darmstadt, Germany), incubated on ice for 15 min and centrifuged at 13,000 × g for 15 min at 4 °C. Protein extracts were quantified by Micro BCA™ Protein Assay Kit (Thermo Fisher Scientific Inc., MA USA) and 40 µg of total protein extract was loaded on SDS-PAGE and immunoblotted with the following antibodies: CB1R and CB2R (1:500, rabbit polyclonal, Abcam, Cambridge, UK), P-TSC2 (Ser939) and TSC2 (1:1000Cell Signaling, Beverly, MA, USA), PI3K (1:1000Cell Signaling, Beverly, MA, USA), P-P70 (Thr389) and P70 (1:1000Cell Signaling, Beverly, MA, USA), P-Akt (Ser473 Thr308) and Akt (1:1000Cell Signaling, Beverly, MA, USA), P-S6 (Ser235/236) and S6 (1:1000Cell Signaling, Beverly, MA, USA), 4EBP1(1:1000Cell Signaling, Beverly, MA, USA), P-ERK(Thr202/Tyr204) and ERK (1:1000Cell Signaling, Beverly, MA, USA), PPRγ (1:1000Cell Signaling, Beverly, MA, USA), Phospho-SAPK/JNK (Thr183/Tyr185) and JNK2 (1:1000 Cell Signaling, Beverly, MA, USA), Phospho-c-Jun (Ser63) and c-Jun (1:1000 Cell Signaling, Beverly, MA, USA), caspase 3/7 (1:1000 Cell Signaling, Beverly, MA, USA), Phospho-βcatenin (Ser675) and βcatenin (1:1000 Cell Signaling, Beverly, MA, USA), vimentin (1:1000Cell Signaling, Beverly, MA, USA), P-cofillin (Ser3) and cofillin (1:1000Cell Signaling, Beverly, MA, USA), actin (1:4000Cell Signaling, Beverly, MA, USA). Subsequently, the membranes were incubated with the corresponding horseradish peroxidase (HRP)-conjugated secondary antibodies (Bio-Rad, Hercules, CA, USA). An enhanced chemiluminescence kit (Bio-Rad, Hercules, CA, USA) was used. […] Total protein expression was quantified using the ImageJ software (http://rsb.info.nih.gov/ij/). […]

[4] = tested on: NCI-N87 cells; test: Muse Ki67 cell proliferation assay; type: cell-based, human
Description: (§3) After the specified drug treatments, the cells were processed with the Muse Ki67 cell proliferation kit, which identified actively proliferating cells based on the expression of Ki67, a nuclear protein present in the active phases of the cell cycle (G1, S, G2, and M phases) and absent in the resting G0 phase. The Muse Ki67 Proliferation Assay was used with the Guava Muse Cell Analyzer according to the manufacturer’s instructions (Luminex Corporation, Austin, USA). Briefly, the cells were stained after fixation and permeabilization procedures, using Hu Ki67 or Hu IgG1 control fluorochrome-conjugated antibodies to distinguish Ki67(+) or Ki67(-) cells, respectively. The software provided the percentage of both Ki67(+) and Ki67(-) cells.

[5] = tested on: AGS cells; test: VEGFA in cell culture medium (ELISA); type: cell-based, human; conditions: 10 µM, 48 h, untreated 8.3
Protocol: (§4) The amount of VEGFA secreted in the culture medium by HGC27-S/R and AGS treated cells was measured using a highly sensitive Enzyme-Linked Immunosorbent Assay (ELISA), Quantikine Kit ELISA (R&D Systems, Minneapolis, MN, USA), according to the manufacturer’s instructions. The measured values were normalized to the number of cells.

[6] = tested on: HGC27-R cells; test: VEGFA in cell culture medium (ELISA); type: cell-based, human; conditions: 10 µM, 48 h, untreated 10.5
Protocol: as §4

[7] = tested on: AGS cells; test: Migration (scratch) assay; type: cell-based, human; conditions: scratch assay 24 h, 6 µM AM630, 10 µM others
Protocol: (§5) HGC27-S/R and AGS cells were grown until confluence. A scratch wound was generated with a pipette tip. […] Photographs were taken of each well immediately (T0) and at various times, T1 (9 h), T2 (24 h), and T3 (48 h), using a Leica DMRXA camera (Leica Microsystems, Milan, Italy). The images were analyzed using ImageJ Software (http://rsb.info.nih.gov/ij/). The distance that cells migrated through the scratch area was determined by measuring the wound width at T1, T2 and T3 and subtracting it from the wound width at the start (T0). The relative migration rate was calculated by setting the percentage of migration of the control cells at time T2 equal to 1 and comparing the percentage of migration of the cells after each drug treatment to this value. The results are representative of three independent experiments.

[8] = tested on: HGC27-R cells; test: Migration (scratch) assay; type: cell-based, human; conditions: scratch assay 24 h, highest concentration
Protocol: as §5

[9] = tested on: HGC27-S cells; test: Migration (scratch) assay; type: cell-based, human; conditions: scratch assay 24 h, 6 µM AM630, 10 µM others
Protocol: as §5

[10] = tested on: HGC27-S cells; test: ROS determination assay (DCF-DA); type: cell-based, human; conditions: 1 µM, 48 h, vs untreated cells
Protocol: as §1, §2

[11] = tested on: HGC27-R cells; test: Muse Ki67 cell proliferation assay; type: cell-based, human; conditions: for percentage of Ki67+ cells: combined with PTX (10 µM compound; 6 µM AM630)
Description: as §3

[12] = NCI-N87, single treatment (10 µM compound; 2 nM PTX), control 78.2%
[13] = representative flow cytometry chart, 48 h, 10 µM CC48, PTX, single or combined as labelled

SMILES | ROS production [1] | CB1R affinity % at 1µM (percentage of displacement at 1 µM) ([2]; 1 µM) [%^23] | expression/activation of PI3K/Akt/mTOR and ERK1/2 pathway proteins (western blot) [3] | percentage of Ki67+ cells [4, 12] [%] | VEGFA secretion in culture medium [5] [pg/mL/cell] | VEGFA secretion in culture medium [6] [pg/mL/cell] | relative migration rate (untreated cells = 1) [7] | relative migration rate (control cells = 1) [8] | relative migration rate (untreated cells = 1) [9] | intracellular ROS production [10] | percentage of Ki67+ cells [11] [%] | Ki ([2]; ± SEM, read-out: CB1R affinity Ki) [nM] | percentage of Ki67+ cells ([4]; NCI-N87, cotreatment with PTX, PTX alone 68.1%) [%] | Ki67(+) cells [11, 13] [%] | Ki67(-) cells [11, 13] [%]
CCCCCNc1ccccc1C(=O)NC12CC3CC(CC(C3)C1)C2 [ASF151] | induced an increase in ROS production | 31 | no effect was detected | 68.3 | 4.4 | 8 | – | – | – | – | – | – | – | – | –
COc1ccc(C(=O)c2c(C)n(CCN3CCOCC3)c3cc(I)ccc23)cc1 [AM630, reference compound] | induced an increase in ROS production | – | significant decrease in PI3K protein expression | – | – | – | 0.7 | 0.2 | 0.6 | significant increase in intracellular ROS production | 51.3 | – | – | – | –
O=C(NC12CC3CC(CC(C3)C1)C2)c1ccccc1OCc1ccccc1 [CC48] | – | – | significant decrease in PI3K protein expression | 60.9 | 5.8 | 6.5 | 0.8 | 0.76 | 0.6 | significant increase in intracellular ROS production | 67.9 | 241.3 ± 2.4 | 59.9 | 84.00 | 16.00
